Patent US12084451B2, “Compositions and methods for reducing tactile dysfunction, anxiety, and social impairment” (President and Fellows of Harvard College, priority 2018, dated 2024)
Where two headings read alike, the source gives them in different places.

Key:
Assay type in all cases: cell-based
[1] = biological target: T1, hGABAA α1β3γ2 (Homo sapiens, UniProt P14867+P18507+P28472); experiment: hGABAA IonFlux HT PAM Assay, α1β3γ2; settings: for Mean Maximal Effect (% of Control): normalized to baseline peak current induced by EC20 GABA (1 μM) for 2 seconds
T1 sequence (P14867 28-456): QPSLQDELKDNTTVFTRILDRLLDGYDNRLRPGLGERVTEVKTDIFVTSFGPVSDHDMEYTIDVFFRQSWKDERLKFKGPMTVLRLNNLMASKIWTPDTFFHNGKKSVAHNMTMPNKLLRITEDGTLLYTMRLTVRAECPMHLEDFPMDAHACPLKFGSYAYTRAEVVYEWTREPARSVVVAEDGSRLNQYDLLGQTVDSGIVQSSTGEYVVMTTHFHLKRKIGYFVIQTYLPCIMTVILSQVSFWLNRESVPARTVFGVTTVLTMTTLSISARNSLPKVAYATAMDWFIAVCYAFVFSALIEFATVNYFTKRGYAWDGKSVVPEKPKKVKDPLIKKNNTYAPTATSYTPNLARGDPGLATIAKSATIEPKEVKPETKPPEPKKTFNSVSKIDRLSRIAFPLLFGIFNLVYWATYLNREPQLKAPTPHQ
T1 sequence (P28472 26-473): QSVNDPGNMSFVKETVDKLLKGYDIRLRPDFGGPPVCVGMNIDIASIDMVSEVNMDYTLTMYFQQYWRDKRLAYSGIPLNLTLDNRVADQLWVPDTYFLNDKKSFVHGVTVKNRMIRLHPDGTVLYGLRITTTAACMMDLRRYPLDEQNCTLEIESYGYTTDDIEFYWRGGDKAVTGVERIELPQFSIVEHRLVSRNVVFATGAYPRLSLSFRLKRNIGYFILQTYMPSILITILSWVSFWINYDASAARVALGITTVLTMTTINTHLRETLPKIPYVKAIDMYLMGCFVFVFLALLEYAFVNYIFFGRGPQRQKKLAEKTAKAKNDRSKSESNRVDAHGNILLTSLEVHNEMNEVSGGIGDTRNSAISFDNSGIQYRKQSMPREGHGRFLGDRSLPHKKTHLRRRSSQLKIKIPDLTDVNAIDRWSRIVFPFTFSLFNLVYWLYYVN
T1 sequence (P18507 40-475): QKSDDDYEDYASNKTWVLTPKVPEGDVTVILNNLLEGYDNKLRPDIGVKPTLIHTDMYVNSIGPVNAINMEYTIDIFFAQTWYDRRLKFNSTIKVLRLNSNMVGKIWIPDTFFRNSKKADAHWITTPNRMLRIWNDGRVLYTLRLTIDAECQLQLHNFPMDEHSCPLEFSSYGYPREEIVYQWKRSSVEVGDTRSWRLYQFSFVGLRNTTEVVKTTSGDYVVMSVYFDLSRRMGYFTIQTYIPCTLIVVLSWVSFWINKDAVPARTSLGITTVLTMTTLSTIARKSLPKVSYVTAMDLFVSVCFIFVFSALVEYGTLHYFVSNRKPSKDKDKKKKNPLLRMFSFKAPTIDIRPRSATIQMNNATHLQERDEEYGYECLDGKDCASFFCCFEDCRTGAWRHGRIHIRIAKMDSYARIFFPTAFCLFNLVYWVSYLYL
Source text: (§1) Ligand-gated ion channels targeted were hGABAA α1β3γ2 and hGABAA α2β3γ2.
(§2) Electrophysiological assays conducted to profile nine (9) compounds for activities on the on channel targets listed above for Positive Allosteric Modulator (PAM) activities using the IonFlux HT electrophysiological platform.
The parameters measured are described in the Data Analysis section.
(§3) All wells included a final DMSO concentration of 0.33% including all control wells.
(§4) All recordings were obtained from a holding potential of −60 mV. The compound addition sequence that was used for all additions was the same for all assays. […] The process was repeated with the next ascending concentration of test compound (FIG. 1).
(§5) All data were first exported to an Excel compatible data file and then analyzed using Graph Pad Prism software.

[2] = biological target: hGABAA α2β3γ2 (Homo sapiens, UniProt P18507+P28472+P47869); experiment: hGABAA IonFlux HT PAM Assay, α2β3γ2; settings: for Mean Maximal Effect (% of Control): normalized to baseline peak current induced by EC20 GABA (0.8 μM) for 2 seconds
Chain of hGABAA α2β3γ2 (P47869 29-451): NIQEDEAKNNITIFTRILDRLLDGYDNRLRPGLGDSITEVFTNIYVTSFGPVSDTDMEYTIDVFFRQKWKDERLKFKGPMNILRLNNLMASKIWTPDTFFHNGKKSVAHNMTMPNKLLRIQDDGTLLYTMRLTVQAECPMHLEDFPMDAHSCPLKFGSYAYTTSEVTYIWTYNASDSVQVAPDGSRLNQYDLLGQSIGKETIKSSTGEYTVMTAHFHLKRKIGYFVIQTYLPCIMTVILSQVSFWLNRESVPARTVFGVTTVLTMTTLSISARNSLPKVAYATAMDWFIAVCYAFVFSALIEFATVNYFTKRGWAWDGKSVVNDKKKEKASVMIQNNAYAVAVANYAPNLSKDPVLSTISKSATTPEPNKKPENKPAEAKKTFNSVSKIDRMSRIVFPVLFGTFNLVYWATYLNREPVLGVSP
Chain of hGABAA α2β3γ2 (P28472 26-473): as the sequence (P28472 26-473) above
Chain of hGABAA α2β3γ2 (P18507 40-475): as the sequence (P18507 40-475) above
Source text: as §1, §2
The parameters measured are described in the Data Analysis section. […] Open circles represent data that has been excluded from the curve fitting. Where no curve fit was possible, n/c (not calculable) is listed.
as §3, §4, §5

[3] = biological target: T1, hGABAA α1β3γ2; experiment: hGABAA α1β3γ2 IonFlux HT Agonist Assay; design: activation of hGABAA α1β3γ2 ion channel currents / activation: dose or concentration left out as unconfirmed; settings: for activation / activation at 0.3 µM / activation at 1 µM / activation at 3 µM / activation at 10 µM / activation at 30 µM / activation at 100 µM / activation at 300 µM: read-out: Normalized Percentage Activation Mean
Protocol: Ligand-gated ion channel targets were hGABAA α2β3γ2 and hGABAA α1β3γ2. Electrophysiological assays conducted to profile two compounds for agonist activities on hGABAA α2β3γ2 and seven compounds for agonist activities on hGABAA α1β3γ2 using the IonFlux HT electrophysiological platform.
The parameters measured are described in the Data Analysis section. […] Note: The test compounds was applied over two (2) ‘experimental patterns’ in increasing concentrations.
The supplied compound was prepared in DMSO to concentrations that were 300× the final assay concentrations. Aliquots were taken out and diluted 300× into external buffer to give the final assay concentration. At wells included a final DMSO concentration of 0.33% including all control wets.
All recordings were obtained from a holding potential of −60 mV. The compound addition sequence that was used for all additions was the same for all assays. […] Each test concentration of compound was applied for 2 seconds followed by 60 seconds wash. The process was repeated with the next ascending concentration of test compound. The test compounds were applied over two (2) ‘experimental patterns’ in increasing concentrations (FIG. 11).
AM data were first exported to an Excel compatible data file and then analyzed using Graph Pad Prism software.

[4] = Estimated EC50, positive modulation of EC20 GABA current

Row | SMILES | Mean Maximal Effect (% of Control) [1] | EC50 ([1]; read-out: Estimated EC50) | Mean Maximal Effect (% of Control) [2] | EC50 ([2]; read-out: Estimated EC50) | activation of hGABAA α1β3γ2 ion channel currents [3] | EC50 ([3]; agonist activation of channel currents, read-out: Estimated EC50) | activation [3] | activation at 0.3 µM [3] | activation at 1 µM [3] | activation at 3 µM [3] | activation at 10 µM [3] | activation at 30 µM [3] | activation at 100 µM [3] | activation at 300 µM [3] | EC50 [1, 4] | EC50 [2, 4] | EC50 [3]
1 | CNCCN(C)C(=O)Cc1c(-c2ccc(C)cc2)nc2ccc(C)cn12 [Compound 1] | 282 % of Control | 0.654 µM | 181 % of Control | 3 µM | did not activate | > 1000 µM | 4.98% | 1.64% | 1.39% | 2.34% | 6.52% | 4.78% | 6.97% | 7.15% | – | – | –
2 | CCN(CCN(C)C)C(=O)OC1c2nccnc2C(=O)N1c1ccc(Cl)cn1 (stereo not shown) [Compound 4] | 170 % of Control | – | 126 % of Control | – | did not activate | – | 4.45% | 5.26% | 5.13% | 5.89% | 5.68% | 6.45% | 5.97% | 5.85% | 2.47 µM | 5.8 µM | > 1000 µM
